Measurements from ChEMBL document CHEMBL1201862, “PubChem BioAssay data set” (2004).
Activity calls are given as the source filed them.

What was measured:
[1] = target: Endoplasmic reticulum aminopeptidase 1 (Homo sapiens, UniProt Q9NZ08); assay: ERAP1 aminopeptidase inhibitors, dose response, biochemical, cherry-pick, set 2, plate reader (AID 743314)
[2] = inhibitors of Vif binding to APOBEC3G peptide, primary screen, biochemical, TR-FRET, GST-Vif 1-94, biotin-A3G peptide, dose response retest (AID 1117319); type: functional;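 further: TR-FRET signal of purified GST-Vif binding a biotinylated A3G peptide; inhibitors lower the FRET signal by blocking Vif and A3G binding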
Estrogen receptor = target: T1, Estrogen receptor (Homo sapiens, UniProt P03372);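 further: potency for inhibiting coactivator peptide recruitment to the receptor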
T1 sequence (P03372 whole entry): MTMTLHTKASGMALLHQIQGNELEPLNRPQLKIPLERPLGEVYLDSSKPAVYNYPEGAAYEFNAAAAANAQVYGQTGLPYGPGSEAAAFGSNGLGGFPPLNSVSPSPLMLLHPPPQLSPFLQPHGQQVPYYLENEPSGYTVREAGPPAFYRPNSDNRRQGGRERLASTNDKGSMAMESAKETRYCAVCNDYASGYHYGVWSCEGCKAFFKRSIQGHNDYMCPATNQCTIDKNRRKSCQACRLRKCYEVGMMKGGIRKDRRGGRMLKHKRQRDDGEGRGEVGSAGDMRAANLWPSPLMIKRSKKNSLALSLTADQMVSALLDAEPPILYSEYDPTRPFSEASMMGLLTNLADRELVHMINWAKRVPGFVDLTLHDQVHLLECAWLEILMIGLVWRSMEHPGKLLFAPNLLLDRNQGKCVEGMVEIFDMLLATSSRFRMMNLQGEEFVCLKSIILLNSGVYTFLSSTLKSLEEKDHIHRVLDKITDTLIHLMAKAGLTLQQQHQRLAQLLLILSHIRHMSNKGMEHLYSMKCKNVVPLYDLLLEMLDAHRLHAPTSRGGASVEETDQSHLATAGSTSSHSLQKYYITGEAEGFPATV

[3] = target: Induced myeloid leukemia cell differentiation protein Mcl-1 (Homo sapiens, UniProt Q07820); type: functional
HEK293 = assay: inhibitors of LMP1-driven NF-kB reporter, dose response, cell-based, HEK293, luciferase, cherry-pick (AID 588343); type: functional; settings: Homo sapiens
[4] = target: T2, Serine/threonine-protein phosphatase (Candida dubliniensis (strain CD36 / CBS 7987 / NCPF 3949 / NRRLY-17841) (Yeast), UniProt B9W6M3); assay: calcineurin pathway inhibitors in yeast reporter, dose response, S. cerevisiae, CDRE-lacZ, luminescence, secondary (AID 2388); type: functional, cell-based;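 further: yeast reporter cells carrying a calcineurin-responsive lacZ construct stimulated with calcium chloride; luminescent beta-galactosidase reporter signal in whole cells rather than isolated phosphatase activity; potency for inhibition where a drop in reporter signal means calcineurin blockade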
T2 sequence (B9W6M3 whole entry): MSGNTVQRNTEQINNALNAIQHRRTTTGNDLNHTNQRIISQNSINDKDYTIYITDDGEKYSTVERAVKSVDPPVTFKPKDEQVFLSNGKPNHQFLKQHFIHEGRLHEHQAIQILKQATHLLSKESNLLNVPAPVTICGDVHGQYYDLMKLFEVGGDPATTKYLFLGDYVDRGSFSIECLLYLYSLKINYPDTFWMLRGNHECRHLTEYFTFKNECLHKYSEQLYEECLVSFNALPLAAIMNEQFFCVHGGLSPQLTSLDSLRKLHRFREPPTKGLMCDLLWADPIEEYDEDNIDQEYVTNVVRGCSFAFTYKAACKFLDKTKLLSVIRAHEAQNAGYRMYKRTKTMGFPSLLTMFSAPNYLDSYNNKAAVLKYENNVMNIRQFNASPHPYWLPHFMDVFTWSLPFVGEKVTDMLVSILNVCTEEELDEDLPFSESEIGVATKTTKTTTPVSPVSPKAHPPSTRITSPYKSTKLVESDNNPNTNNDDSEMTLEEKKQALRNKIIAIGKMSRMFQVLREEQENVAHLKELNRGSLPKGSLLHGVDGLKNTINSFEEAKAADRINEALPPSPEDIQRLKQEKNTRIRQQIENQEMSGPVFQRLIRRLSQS

[5] = C. albicans growth with fluconazole, confirmation, fluorescence, retest (AID 2467); type: functional, cell-based
[6] = NIH-3T3 fibroblast cytotoxicity, dose response, cytotoxicity control, cell-based, fluorescence, Alamar Blue, secondary assay (AID 2327); type: functional;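 further: NIH-3T3 mouse fibroblasts cultured with fluconazole at 8 µg/mL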
[7] = target: ATP-dependent molecular chaperone HSP82 (Candida albicans (strain WO-1) (Yeast), UniProt C4YTQ8); assay: loss of DOC-induced GRE-beta-galactosidase reporter signal, dose response, Hsp90 inhibitor project, S. cerevisiae, luminescence (AID 2400); type: functional, cell-based;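 further: beta-galactosidase luminescence from glucocorticoid response element reporter as proxy for Hsp90 function; inhibitor potency where signal loss means Hsp90 inhibition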
[8] = Jurkat T cell cytotoxicity, dose response, cytotoxicity control for P. falciparum gametocyte viability project, luminescence (AID 1117277); type: functional, cell-based;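 further: potency reflects loss of cellular ATP meaning fewer viable cells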
[9] = P. falciparum late gametocyte killing, dose response, luminescence (AID 1117278); type: functional, cell-based;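 further: gametocytes exposed to compound for 24 hours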
[10] = THP-1 cell cytotoxicity, dose response, cytotoxicity control for Vif-APOBEC3G degradation inhibitor project, THP-1 cells (AID 1117359); type: functional; settings: Human immunodeficiency virus 1, THP-1
Protein Tat = target: T3, Protein Tat (Human immunodeficiency virus type 1 group M subtype B (isolate HXB2)(HIV-1), UniProt P04608); type: functional;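 further: tat binding to TAR RNA read out by fluorescence polarization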
T3 sequence (P04608 whole entry): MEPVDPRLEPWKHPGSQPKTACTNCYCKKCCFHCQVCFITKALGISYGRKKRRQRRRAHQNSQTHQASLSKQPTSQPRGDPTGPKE

Cytochrome P450 3A4 = Cytochrome P450 3A4 (Homo sapiens, UniProt P08684);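 further: CYP3A4 tested as one member of a cytochrome P450 panel screen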
Leucine aminopeptidase = target: T4, Leucine aminopeptidase (Plasmodium falciparum 3D7, UniProt Q8IL11); assay: P. falciparum M17LAP inhibitors, primary screen, biochemical, fluorogenic H-Leu-NHMec substrate, 1536-well (AID 1619); type: functional
T4 sequence (Q8IL11 whole entry): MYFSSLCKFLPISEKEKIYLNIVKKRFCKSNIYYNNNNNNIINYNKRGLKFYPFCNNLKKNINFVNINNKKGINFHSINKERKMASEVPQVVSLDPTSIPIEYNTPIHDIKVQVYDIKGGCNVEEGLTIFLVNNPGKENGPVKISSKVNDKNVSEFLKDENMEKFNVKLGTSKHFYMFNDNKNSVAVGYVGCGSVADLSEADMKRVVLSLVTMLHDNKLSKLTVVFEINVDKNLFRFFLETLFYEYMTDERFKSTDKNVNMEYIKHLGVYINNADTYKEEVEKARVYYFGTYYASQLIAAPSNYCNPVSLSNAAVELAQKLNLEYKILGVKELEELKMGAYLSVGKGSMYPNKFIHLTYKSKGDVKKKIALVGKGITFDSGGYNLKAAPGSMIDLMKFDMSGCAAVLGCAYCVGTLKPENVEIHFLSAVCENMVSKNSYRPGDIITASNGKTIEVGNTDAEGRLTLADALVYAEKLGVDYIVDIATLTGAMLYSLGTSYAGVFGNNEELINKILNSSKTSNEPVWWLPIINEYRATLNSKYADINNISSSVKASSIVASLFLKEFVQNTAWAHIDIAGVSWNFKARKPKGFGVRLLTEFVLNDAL

Cytochrome P450 2C9 = Cytochrome P450 2C9 (Homo sapiens, UniProt P11712)
Cytochrome P450 1A2 = target: T5, Cytochrome P450 1A2 (Homo sapiens, UniProt P05177);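 further: PubChem cytochrome P450 panel assay, CYP1A2 panel member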
T5 sequence (P05177 whole entry): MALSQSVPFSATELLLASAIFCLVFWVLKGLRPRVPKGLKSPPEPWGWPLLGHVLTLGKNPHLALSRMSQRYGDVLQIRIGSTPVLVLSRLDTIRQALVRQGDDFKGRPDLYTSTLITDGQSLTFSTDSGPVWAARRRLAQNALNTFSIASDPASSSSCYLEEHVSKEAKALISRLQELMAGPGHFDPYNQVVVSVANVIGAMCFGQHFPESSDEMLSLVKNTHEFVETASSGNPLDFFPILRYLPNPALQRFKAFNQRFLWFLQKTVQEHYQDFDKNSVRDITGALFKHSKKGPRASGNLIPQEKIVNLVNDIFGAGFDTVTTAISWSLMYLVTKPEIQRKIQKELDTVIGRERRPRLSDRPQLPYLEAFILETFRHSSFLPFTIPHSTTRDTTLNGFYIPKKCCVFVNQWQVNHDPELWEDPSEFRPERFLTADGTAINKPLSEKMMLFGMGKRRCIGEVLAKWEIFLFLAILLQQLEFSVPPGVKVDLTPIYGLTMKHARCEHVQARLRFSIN

HeLa = assay: HeLa cell cytotoxicity, dose response, cytotoxicity control, 24 h, cherry-picked samples (AID 504726); type: functional, cell-based; settings: Homo sapiens;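 further: potency for cytotoxicity as loss of luminescence signal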
[11] = target: T6, DNA repair and recombination protein RAD54-like (Homo sapiens, UniProt Q92698); assay: inhibitors of human RAD54 branch migration, confirmation, biochemical, fluorescence, cherry-picked samples, dose series (AID 651657); type: functional
T6 sequence (Q92698 whole entry): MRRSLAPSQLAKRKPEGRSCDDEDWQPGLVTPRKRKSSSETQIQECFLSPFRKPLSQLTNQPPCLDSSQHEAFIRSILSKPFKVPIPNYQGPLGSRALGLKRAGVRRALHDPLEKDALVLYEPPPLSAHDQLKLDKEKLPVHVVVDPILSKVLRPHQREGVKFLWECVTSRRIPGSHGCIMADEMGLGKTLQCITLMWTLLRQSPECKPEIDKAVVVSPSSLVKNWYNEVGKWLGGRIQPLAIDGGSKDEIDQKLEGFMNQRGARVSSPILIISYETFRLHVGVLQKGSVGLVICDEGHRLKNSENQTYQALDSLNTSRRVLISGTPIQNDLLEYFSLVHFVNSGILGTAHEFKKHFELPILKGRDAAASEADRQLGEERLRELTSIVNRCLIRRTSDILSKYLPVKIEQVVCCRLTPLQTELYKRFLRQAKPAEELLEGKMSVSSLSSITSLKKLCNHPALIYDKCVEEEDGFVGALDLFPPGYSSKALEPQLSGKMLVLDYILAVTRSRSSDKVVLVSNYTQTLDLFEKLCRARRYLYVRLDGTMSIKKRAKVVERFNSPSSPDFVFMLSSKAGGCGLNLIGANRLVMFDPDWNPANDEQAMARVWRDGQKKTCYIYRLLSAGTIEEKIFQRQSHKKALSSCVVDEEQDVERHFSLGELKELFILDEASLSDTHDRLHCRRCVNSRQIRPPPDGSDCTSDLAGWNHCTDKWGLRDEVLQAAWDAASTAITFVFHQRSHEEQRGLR

Sequence of Endoplasmic reticulum aminopeptidase 1 (Q9NZ08 whole entry): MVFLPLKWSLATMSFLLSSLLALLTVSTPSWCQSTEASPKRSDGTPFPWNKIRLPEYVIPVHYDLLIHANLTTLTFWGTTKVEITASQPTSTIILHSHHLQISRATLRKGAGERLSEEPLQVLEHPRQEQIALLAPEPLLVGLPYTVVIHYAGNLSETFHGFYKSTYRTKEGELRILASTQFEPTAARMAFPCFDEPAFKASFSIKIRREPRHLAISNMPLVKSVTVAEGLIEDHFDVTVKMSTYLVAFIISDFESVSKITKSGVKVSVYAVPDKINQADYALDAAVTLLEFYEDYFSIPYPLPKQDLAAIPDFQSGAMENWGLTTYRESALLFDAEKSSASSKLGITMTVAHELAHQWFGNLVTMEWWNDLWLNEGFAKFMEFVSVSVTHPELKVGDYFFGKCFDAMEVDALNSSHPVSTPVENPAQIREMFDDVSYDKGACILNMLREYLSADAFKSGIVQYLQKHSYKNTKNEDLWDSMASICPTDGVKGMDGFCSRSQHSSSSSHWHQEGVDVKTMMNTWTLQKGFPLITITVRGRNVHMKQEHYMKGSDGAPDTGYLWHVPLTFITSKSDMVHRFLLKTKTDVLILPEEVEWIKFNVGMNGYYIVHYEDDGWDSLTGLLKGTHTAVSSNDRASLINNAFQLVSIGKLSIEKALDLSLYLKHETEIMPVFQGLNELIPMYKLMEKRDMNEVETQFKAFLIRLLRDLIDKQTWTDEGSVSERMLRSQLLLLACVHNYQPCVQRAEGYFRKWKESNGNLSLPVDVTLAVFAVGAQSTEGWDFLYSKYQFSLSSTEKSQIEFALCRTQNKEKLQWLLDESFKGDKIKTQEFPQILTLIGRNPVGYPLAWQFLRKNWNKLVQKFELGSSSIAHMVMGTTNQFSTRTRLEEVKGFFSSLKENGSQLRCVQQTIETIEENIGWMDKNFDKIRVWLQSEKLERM
Sequence of Induced myeloid leukemia cell differentiation protein Mcl-1 (Q07820 whole entry): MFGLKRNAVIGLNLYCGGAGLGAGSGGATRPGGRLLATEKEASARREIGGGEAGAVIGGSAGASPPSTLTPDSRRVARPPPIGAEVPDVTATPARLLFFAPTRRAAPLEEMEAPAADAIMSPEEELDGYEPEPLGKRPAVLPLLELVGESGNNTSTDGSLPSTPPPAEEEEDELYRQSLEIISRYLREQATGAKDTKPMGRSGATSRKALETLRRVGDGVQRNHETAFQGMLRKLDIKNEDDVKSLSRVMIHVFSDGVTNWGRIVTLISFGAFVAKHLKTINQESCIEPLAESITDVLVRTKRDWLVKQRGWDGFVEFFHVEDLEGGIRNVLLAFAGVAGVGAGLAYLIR
Sequence of ATP-dependent molecular chaperone HSP82 (C4YTQ8 whole entry): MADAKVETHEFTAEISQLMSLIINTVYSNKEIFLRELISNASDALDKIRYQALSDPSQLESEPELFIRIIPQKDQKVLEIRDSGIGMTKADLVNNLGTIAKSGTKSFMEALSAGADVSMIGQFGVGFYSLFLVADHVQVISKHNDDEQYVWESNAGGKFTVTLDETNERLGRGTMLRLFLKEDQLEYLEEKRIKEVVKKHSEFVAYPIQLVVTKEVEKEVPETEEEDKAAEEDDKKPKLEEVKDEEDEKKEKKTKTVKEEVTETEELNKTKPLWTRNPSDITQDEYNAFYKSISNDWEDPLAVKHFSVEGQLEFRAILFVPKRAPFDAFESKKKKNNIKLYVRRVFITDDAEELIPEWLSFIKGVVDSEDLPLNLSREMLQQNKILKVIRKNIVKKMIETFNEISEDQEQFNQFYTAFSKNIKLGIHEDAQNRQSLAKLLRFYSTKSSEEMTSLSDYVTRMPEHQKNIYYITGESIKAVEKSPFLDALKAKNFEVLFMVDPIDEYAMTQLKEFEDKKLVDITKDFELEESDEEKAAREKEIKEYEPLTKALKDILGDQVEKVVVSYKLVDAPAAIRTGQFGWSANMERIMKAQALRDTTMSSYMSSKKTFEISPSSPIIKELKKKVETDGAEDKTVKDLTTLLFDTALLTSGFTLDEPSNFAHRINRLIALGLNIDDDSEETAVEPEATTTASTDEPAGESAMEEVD
Sequence of Cytochrome P450 3A4 (P08684 whole entry): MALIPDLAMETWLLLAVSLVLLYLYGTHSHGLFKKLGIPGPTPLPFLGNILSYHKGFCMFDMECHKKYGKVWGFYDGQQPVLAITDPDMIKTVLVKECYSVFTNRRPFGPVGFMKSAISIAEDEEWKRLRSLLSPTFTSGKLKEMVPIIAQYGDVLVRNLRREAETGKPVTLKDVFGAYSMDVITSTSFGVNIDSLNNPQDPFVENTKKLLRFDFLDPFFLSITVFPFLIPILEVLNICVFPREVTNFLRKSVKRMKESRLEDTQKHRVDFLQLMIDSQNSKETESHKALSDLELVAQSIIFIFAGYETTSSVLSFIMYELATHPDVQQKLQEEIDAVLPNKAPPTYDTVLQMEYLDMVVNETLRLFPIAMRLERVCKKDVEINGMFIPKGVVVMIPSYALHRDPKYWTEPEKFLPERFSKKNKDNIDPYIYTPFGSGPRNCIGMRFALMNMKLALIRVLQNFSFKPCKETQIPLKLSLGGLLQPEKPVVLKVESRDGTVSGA
Sequence of Cytochrome P450 2C9 (P11712 whole entry): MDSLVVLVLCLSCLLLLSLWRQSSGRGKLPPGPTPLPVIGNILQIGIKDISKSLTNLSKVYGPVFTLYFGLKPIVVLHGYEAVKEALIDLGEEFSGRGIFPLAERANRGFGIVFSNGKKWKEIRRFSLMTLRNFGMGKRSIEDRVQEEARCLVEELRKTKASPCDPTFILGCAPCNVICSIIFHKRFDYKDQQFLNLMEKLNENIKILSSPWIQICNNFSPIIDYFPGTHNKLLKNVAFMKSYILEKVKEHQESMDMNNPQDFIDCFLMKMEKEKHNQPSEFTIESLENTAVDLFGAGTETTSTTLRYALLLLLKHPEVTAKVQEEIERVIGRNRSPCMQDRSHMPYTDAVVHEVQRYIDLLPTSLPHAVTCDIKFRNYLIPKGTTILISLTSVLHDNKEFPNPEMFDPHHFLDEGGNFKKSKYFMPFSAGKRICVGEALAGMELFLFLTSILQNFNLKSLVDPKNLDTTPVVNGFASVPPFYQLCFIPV

Cc1cc(=O)oc2cc(NS(=O)(=O)c3ccc(F)cc3)ccc12
AC50 [1]: 8.8 µM (active)

COc1ccc(CN2C(=O)c3ccccc3C2C(=O)NCc2cccnc2)c(OC)c1 (stereo not given)
IC50 [2]: > 100 µM (active)

CCCn1c(O)nnc1SCC(=O)c1cc(C)ccc1C
IC50 [2]: > 100 µM (active)

Cc1ccc(/C=c2\sc3nc(-c4ccco4)nn3c2=O)o1
IC50 (Estrogen receptor): 13.9 µM (active)
IC50 [3]: 4.61 µM (active)

O=C(Nc1ccc2c(c1)nc1n2CCSC1)c1ccco1
IC50 (Estrogen receptor): 14.5 µM (active)
AC50 (HEK293): 3.52 µM (active)

O=C(N/N=C/c1cc([N+](=O)[O-])ccc1O)c1ccc(COc2ccc3c(c2)CCC3)o1
EC50 [4]: > 180 µM (inactive)
EC50 [5]: 1.19 µM (active)
EC50 [6]: 11.6 µM (active)
EC50 [7]: 28.3 µM (active)

CCOc1ccc(S(=O)(=O)N2CCCC2)cc1
IC50 [8]: > 83.3 µM (inactive)
IC50 [9]: > 109 µM (inactive)

S=C(Nc1ccc2c(c1)OCCO2)Nc1ccc2c(c1)OCO2
CC50 [10]: > 40 µM (active)
IC50 [2]: > 100 µM (active)
IC50 (Protein Tat): > 100 µM (active)

COc1ccc(N(CC(=O)NCc2ccccc2C)S(=O)(=O)c2ccc(C)cc2)cc1OC
IC50 [2]: > 100 µM (active)

CC(=O)N1[C@@H]2Cn3c(ccc(/C=C/c4ccccc4)c3=O)[C@H]1[C@@H](C(=O)NCC1CC1)[C@@H]2CO
AC50 [1]: 8.13 µM (active)

CCCn1nc(C(=O)OCC(=O)c2ccc3c(c2)NC(=O)CO3)c2ccccc2c1=O
IC50 (Estrogen receptor): 37.9 µM (not active)

O=C(O)c1ccccc1-c1ccccc1C(=O)Nc1ccc2c(c1)[nH]c(=O)c1ccccc12
AC50 (Cytochrome P450 3A4): 3.98 µM (inconclusive)
IC50 (Leucine aminopeptidase): 38.8 µM (active)
AC50 (Cytochrome P450 2C9): 3.16 µM (inconclusive)
AC50 (Cytochrome P450 1A2): 0.00316 µM (inconclusive)

Cc1cc(S(=O)(=O)NC2CCN(Cc3ccccc3)CC2)c(C)cc1Cl
AC50 (HeLa): 52.3 µM (active)

COc1cccc(OCCNc2ccc([N+](=O)[O-])cn2)c1
AC50 (HeLa): 49.3 µM (active)

CCCc1cc(=O)oc2c(CN3CCN(C)CC3)c(O)ccc12
AC50 [1]: 7.87 µM (active)

Cc1ccc(OCc2ccc(C(=O)O)o2)c([N+](=O)[O-])c1
IC50 (Leucine aminopeptidase): 31.8 µM (active)

O=C1c2cccc3cccc(c23)C(=O)N1CCCn1ccnc1
AC50 [11]: 20.2 µM (active)

COCCn1cnc2c1c(=O)n(CC(=O)Nc1cc(C)on1)c(=O)n2Cc1ccccc1
IC50 [8]: > 83.3 µM (inactive)
IC50 [9]: > 109 µM (inactive)

Cc1c(N)cc(S(=O)(=O)O)cc1NC(=O)c1cccc([N+](=O)[O-])c1
AC50 (HeLa): 56.4 µM (active)

Cc1ccc(OCC(=O)O/N=C(\N)Cc2ccc([N+](=O)[O-])cc2)cc1C
AC50 (HeLa): > 350 µM (inactive)

COCCCNC(=O)c1cccn2c(=O)c3cc4ccccc4cc3nc12
IC50 (Protein Tat): > 100 µM (active)

Cc1ccc(S(=O)(=O)N2CCN(C(=O)CCC(=O)NCCc3ccc(F)cc3)CC2)cc1
IC50 [8]: > 83.3 µM (inactive)
IC50 [9]: > 109 µM (inactive)
